Patent US10711004B2 (Genentech, Inc., priority 2018, dated 2020)
Where two headings read alike, the source gives them in different places.

Molecular target: human TRPA1 channel (Homo sapiens (Human), UniProt O75762)
Test: hTRPA1 CHO Ca2+ FLIPR Tetra assay, block of cinnamaldehyde induced calcium influx
Assay type: cell-based
Settings: CHO cells expressing TRPA1, Hill coefficient fixed to 1.5
Summary of the method: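 Calcium-dye-loaded TRPA1-expressing CHO cells in HBSS/20 mM HEPES pH 7.4, 0.02% BSA were preincubated with compound for 10 or 90 min at room temperature. Calcium influx evoked by roughly an EC50 concentration of cinnamaldehyde was then read on FLIPR Tetra; IC50 came from curve fits with a fixed Hill coefficient.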

[1] = read-out: hTRPA1 IC50 (10 min), compounds incubated 10 minutes at room temperature before cinnamaldehyde agonist
[2] = read-out: hTRPA1 IC50 (90 min), compounds incubated 90 minutes at room temperature before cinnamaldehyde agonist

human TRPA1 channel, sequence (O75762 whole entry): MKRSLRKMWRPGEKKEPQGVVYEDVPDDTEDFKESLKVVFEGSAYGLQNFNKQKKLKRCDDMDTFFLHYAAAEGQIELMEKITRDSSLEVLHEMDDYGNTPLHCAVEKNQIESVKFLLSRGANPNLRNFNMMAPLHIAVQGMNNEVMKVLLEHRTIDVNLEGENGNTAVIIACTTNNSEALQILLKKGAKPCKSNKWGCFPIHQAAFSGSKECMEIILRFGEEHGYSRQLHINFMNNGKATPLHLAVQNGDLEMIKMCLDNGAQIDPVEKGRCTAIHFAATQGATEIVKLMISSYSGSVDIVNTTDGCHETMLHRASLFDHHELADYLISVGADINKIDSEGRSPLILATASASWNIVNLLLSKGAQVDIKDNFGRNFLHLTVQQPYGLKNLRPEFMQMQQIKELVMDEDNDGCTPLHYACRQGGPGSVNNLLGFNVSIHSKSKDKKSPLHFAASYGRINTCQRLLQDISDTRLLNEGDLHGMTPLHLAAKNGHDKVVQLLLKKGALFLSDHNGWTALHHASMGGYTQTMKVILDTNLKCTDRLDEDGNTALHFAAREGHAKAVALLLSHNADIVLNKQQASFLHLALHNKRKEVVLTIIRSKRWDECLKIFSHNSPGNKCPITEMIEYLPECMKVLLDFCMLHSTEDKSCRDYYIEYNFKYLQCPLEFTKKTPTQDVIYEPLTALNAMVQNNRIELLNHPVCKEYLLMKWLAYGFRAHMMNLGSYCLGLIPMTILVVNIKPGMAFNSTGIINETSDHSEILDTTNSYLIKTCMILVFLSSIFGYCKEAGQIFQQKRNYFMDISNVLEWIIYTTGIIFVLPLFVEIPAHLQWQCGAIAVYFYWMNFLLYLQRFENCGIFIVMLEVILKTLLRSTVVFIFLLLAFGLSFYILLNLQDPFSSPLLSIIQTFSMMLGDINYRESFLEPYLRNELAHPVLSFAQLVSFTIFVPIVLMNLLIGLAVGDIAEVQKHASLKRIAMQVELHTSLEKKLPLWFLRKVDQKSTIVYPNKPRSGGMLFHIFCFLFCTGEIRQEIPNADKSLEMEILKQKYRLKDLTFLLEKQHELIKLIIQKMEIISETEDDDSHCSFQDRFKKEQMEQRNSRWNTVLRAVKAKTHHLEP

| Compound | IC50 [1] [nM] | IC50 [2] [nM] | IC50 (compounds incubated 10 minutes at room temperature before cinnamaldehyde agonist) [nM] | IC50 (compounds incubated 90 minutes at room temperature before cinnamaldehyde agonist) [nM] |
| --- | --- | --- | --- | --- |
| Cn1cnc2ncn(Cc3nc([C@H]4[C@@H]5Oc6c(Cl)cccc6[C@@H]54)no3)c(=O)c21 [Example Compound 186, 1-((3-((1S,1aR,6bS)-3-chloro-1a,6b-dihydro-1H-cyclopropa[b]benzofuran-1-yl)-1,2,4-oxadiazol-5-yl)methyl)-7-methyl-1,7-dihydro-6H-purin-6-one] | 49.9 | 46 |  |  |
| Cn1cnc2ncn(Cc3nc([C@@H]4[C@H]5Oc6c(Cl)cccc6[C@H]54)no3)c(=O)c21 [Example Compound 187, 1-((3-((1R,1 aS,6bR)-3-chloro-1a,6b-dihydro-1H-cyclopropa[b]benzofuran-1-yl)-1,2,4-oxadiazol-5-yl)methyl)-7-methyl-1,7-dihydro-6H-purin-6-one] | 763 |  |  |  |
| Cn1cnc2ncn(Cc3nc([C@H]4C[C@H](c5cccc(C#N)c5)C4)no3)c(=O)c21 [Example Compound 189, 3-((1r,3r)-3-(5-((7-methyl-6-oxo-6,7-dihydro-1H-purin-1-yl)methyl)-1,2,4-oxadiazol-3-yl)cyclobutyl)benzonitrile] | 68.2 |  |  |  |
| Cn1cnc2ncn(Cc3nc([C@H]4[C@@H]5CN(c6cccc(-c7ncco7)c6)C[C@@H]54)no3)c(=O)c21 [Example Compound 190, 7-methyl-1-((3-((1R,5S,6r)-3-(3-(oxazol-2-yl)phenyl)-3-azabicyclo[3.1.0]hexan-6-yl)-1,2,4-oxadiazol-5-yl)methyl)-1,7-dihydro-6H-purin-6-one] | 78.3 | 72 |  |  |
| Cn1cnc2ncn(Cc3nc([C@H]4C[C@H](c5cccc(F)c5)C4)no3)c(=O)c21 [Example Compound 191, 1-((3-((1r,3r)-3-(3-fluorophenyl)cyclobutyl)-1,2,4-oxadiazol-5-yl)methyl)-7-methyl-1,7-dihydro-6H-purin-6-one] | 83 |  |  |  |
| Cn1cnc2ncn(Cc3nc([C@H]4[C@@H]5CN(c6ccc(C#N)cc6)C[C@@H]54)no3)c(=O)c21 [Example Compound 192, 4-((1R,5S,6r)-6-(5-((7-methyl-6-oxo-6,7-dihydro-1H-purin-1-yl)methyl)-1,2,4-oxadiazol-3-yl)-3-azabicyclo[3.1.0]hexan-3-yl)benzonitrile] | 27.4 | 13 |  |  |
| Cn1cnc2ncn(Cc3nc([C@H]4[C@@H]5CN(c6cc(Cl)cc(C#N)c6)C[C@@H]54)no3)c(=O)c21 [Example Compound 193, 3-chloro-5-((1R,5S,6r)-6-(5-((7-methyl-6-oxo-6,7-dihydro-1H-purin-1-yl)methyl)-1,2,4-oxadiazol-3-yl)-3-azabicyclo[3.1.0]hexan-3-yl)benzonitrile] | 37.1 | 32 |  |  |
| O=c1c2cccnc2ncn1Cc1nc([C@H]2[C@@H]3CN(c4ccccc4)C[C@@H]32)no1 [Example Compound 194, 3-((3-((1R,5S,6r)-3-phenyl-3-azabicyclo[3.1.0]hexan-6-yl)-1,2,4-oxadiazol-5-yl)methyl)pyrido[2,3-d]pyrimidin-4(3H)-one] | 20.1 | 15 |  |  |
| O=c1c2ccncc2ncn1Cc1nc([C@H]2[C@@H]3CN(c4ccccc4)C[C@@H]32)no1 [Example Compound 195, 3-((3-((1R,5S,6r)-3-phenyl-3-azabicyclo[3.1.0]hexan-6-yl)-1,2,4-oxadiazol-5-yl)methyl)pyrido[3,4-d]pyrimidin-4(3H)-one] | 99.4 | 110 |  |  |
| Cc1ccnc2ncn(Cc3nc([C@H]4C[C@](F)(c5ccc(F)cc5)C4)no3)c(=O)c12 [Example Compound 196, 3-((3-((1s,3s)-3-fluoro-3-(4-fluorophenyl)cyclobutyl)-1,2,4-oxadiazol-5-yl)methyl)-5-methylpyrido[2,3-d]pyrimidin-4(3H)-one] | 13 | 30 |  |  |
| O=c1c2cccnc2ncn1Cc1nc([C@H]2C[C@](F)(c3cccc(F)c3)C2)no1 [Example Compound 197, 3-((3-((1s,3s)-3-fluoro-3-(3-fluorophenyl)cyclobutyl)-1,2,4-oxadiazol-5-yl)methyl)pyrido[2,3-d]pyrimidin-4(3H)-one] | 66.9 |  |  |  |
| O=c1c2cccnc2ncn1Cc1nc([C@H]2C[C@](F)(c3cccc(Cl)c3)C2)no1 [Example Compound 198, 3-((3-((1s,3s)-3-(3-chlorophenyl)-3-fluorocyclobutyl)-1,2,4-oxadiazol-5-yl)methyl)pyrido[2,3-d]pyrimidin-4(3H)-one] | 58.7 |  |  |  |
| Cn1cnc2ncn(Cc3nc([C@H]4[C@@H]5CN(c6cccc(-c7cnco7)c6)C[C@@H]54)no3)c(=O)c21 [Example Compound 199, 7-methyl-1-((3-((1R,5S,6r)-3-(3-(oxazol-5-yl)phenyl)-3-azabicyclo[3.1.0]hexan-6-yl)-1,2,4-oxadiazol-5-yl)methyl)-1,7-dihydro-6H-purin-6-one] | 26.2 | 22 |  |  |
| Cn1cc(-c2cccc(N3C[C@@H]4[C@H](C3)[C@H]4c3noc(Cn4cnc5ncn(C)c5c4=O)n3)c2)cn1 [Example Compound 200, 7-methyl-1-((3-((1R,5S,6r)-3-(3-(1-methyl-1H-pyrazol-4-yl)phenyl)-3-azabicyclo[3.1.0]hexan-6-yl)-1,2,4-oxadiazol-5-yl)methyl)-1,7-dihydro-6H-purin-6-one] | 38.4 | 17 |  |  |
| Cn1cnc2ncn(Cc3nc([C@H]4[C@@H]5CN(c6cccc(-c7ccncc7)c6)C[C@@H]54)no3)c(=O)c21 [Example Compound 201, 7-methyl-1-((3-((1R,5S,6r)-3-(3-(pyridin-4-yl)phenyl)-3-azabicyclo[3.1.0]hexan-6-yl)-1,2,4-oxadiazol-5-yl)methyl)-1,7-dihydro-6H-purin-6-one] | 67 | 66 |  |  |
| Cn1cnc2ncn(Cc3nc([C@H]4[C@@H]5CN(c6cccc(-n7cccn7)c6)C[C@@H]54)no3)c(=O)c21 [Example Compound 202, 1-((3-((1R,5S,6r)-3-(3-(1H-pyrazol-1-yl)phenyl)-3-azabicyclo[3.1.0]hexan-6-yl)-1,2,4-oxadiazol-5-yl)methyl)-7-methyl-1,7-dihydro-6H-purin-6-one] | 50.1 |  |  |  |
| Cn1cnc2ncn(Cc3nc([C@H]4[C@@H]5CN(c6cccc(-c7cccnc7)c6)C[C@@H]54)no3)c(=O)c21 [Example Compound 203, 7-methyl-1-((3-((1R,5S,6r)-3-(3-(pyridin-3-yl)phenyl)-3-azabicyclo[3.1.0]hexan-6-yl)-1,2,4-oxadiazol-5-yl)methyl)-1,7-dihydro-6H-purin-6-one] | 46.3 | 78 |  |  |
| Cn1cnc2ncn(Cc3nc([C@H]4[C@@H]5CN(c6ccc(Cl)cn6)C[C@@H]54)no3)c(=O)c21 [Example Compound 205, 1-((3-((1R,5S,6r)-3-(5-chloropyridin-2-yl)-3-azabicyclo[3.1.0]hexan-6-yl)-1,2,4-oxadiazol-5-yl)methyl)-7-methyl-1,7-dihydro-6H-purin-6-one] | 496 | 86 |  |  |
| Cn1cnc2ncn(Cc3nc([C@H]4C[C@](F)(c5ccc(F)cc5)C4)no3)c(=O)c21 [Example Compound 206, 1-((3-((1s,3s)-3-fluoro-3-(4-fluorophenyl)cyclobutyl)-1,2,4-oxadiazol-5-yl)methyl)-7-methyl-1,7-dihydro-6H-purin-6-one] | 313 |  |  |  |
| O=c1c2cccnc2ncn1Cc1nc([C@H]2C[C@](F)(c3ccc(F)cc3)C2)no1 [Example Compound 207, 3-((3-((1s,3s)-3-fluoro-3-(4-fluorophenyl)cyclobutyl)-1,2,4-oxadiazol-5-yl)methyl)pyrido[2,3-d]pyrimidin-4(3H)-one] | 95 |  |  |  |
| O=c1c2cccnc2ncn1Cc1nc([C@H]2C[C@H](c3ccc(Cl)cc3)C2)no1 [Example Compound 208, 3-((3-((1r,3r)-3-(4-chlorophenyl)cyclobutyl)-1,2,4-oxadiazol-5-yl)methyl)pyrido[2,3-d]pyrimidin-4(3H)-one] | 78.5 |  |  |  |
| Cn1cnc2ncn(Cc3nc([C@H]4C[C@H](c5cc(Cl)ccc5F)C4)no3)c(=O)c21 [Example Compound 209, 1-((3-((1r,3r)-3-(5-chloro-2-fluorophenyl)cyclobutyl)-1,2,4-oxadiazol-5-yl)methyl)-7-methyl-1,7-dihydro-6H-purin-6-one] | 886 |  |  |  |
| Cc1ccnc2ncn(Cc3nc([C@H]4C[C@](F)(c5cccc(Cl)c5)C4)no3)c(=O)c12 [Example Compound 210, 3-((3-((1s,3s)-3-(3-chlorophenyl)-3-fluorocyclobutyl)-1,2,4-oxadiazol-5-yl)methyl)-5-methylpyrido[2,3-d]pyrimidin-4(3H)-one] | 15.1 |  |  |  |
| Cn1cnc2ncn(Cc3nc([C@H]4[C@@H]5CN(c6ccc7ncsc7c6)C[C@@H]54)no3)c(=O)c21 [Example Compound 211, 1-((3-((1R,5S,6r)-3-(benzo[d]thiazol-6-yl)-3-azabicyclo[3.1.0]hexan-6-yl)-1,2,4-oxadiazol-5-yl)methyl)-7-methyl-1,7-dihydro-6H-purin-6-one] | 63.8 | 10 |  |  |
| Cn1cnc2ncn(Cc3nc([C@H]4[C@@H]5CN(c6cc(Cl)ccn6)C[C@@H]54)no3)c(=O)c21 [Example Compound 212, 1-((3-((1R,5S,6r)-3-(4-chloropyridin-2-yl)-3-azabicyclo[3.1.0]hexan-6-yl)-1,2,4-oxadiazol-5-yl)methyl)-7-methyl-1,7-dihydro-6H-purin-6-one] | 84.7 | 25 |  |  |
| O=c1c2cccnc2cnn1Cc1nc([C@H]2[C@@H]3CN(c4ccccc4)C[C@@H]32)no1 [Example Compound 213, 6-((3-((1R,5S,6r)-3-phenyl-3-azabicyclo[3.1.0]hexan-6-yl)-1,2,4-oxadiazol-5-yl)methyl)pyrido[2,3-d]pyridazin-5(6H)-one] | 6.17 | 5.1 | 15.4 | 8.5 |
